Test results published in the supplement of paper PMC10307832.

Key:
Test in all cases: relative viability (nuclei count vs DMSO), 5 days (fraction); higher = more cells survive
[1] = compound: COC1=CC=C(C=C1)CN2C=CC3=C2C=C(C=C3)C(=O)NO + CS(=O)(=O)CCNCc1ccc(-c2ccc3ncnc(Nc4ccc(OCc5cccc(F)c5)c(Cl)c4)c3c2)o1 [Lapatinib] (partner 2 µM)
Outline: (§1)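 After 5 days of treatment, lung cancer cells in 1536-well plates were fixed and stained in a single step (final 0.05% Triton X-100, 1% formaldehyde, 1 ug/ml Hoechst) and their nuclei counted on 4× images. Treatment had been applied by pin tool the day after seeding as one drug alone or as a fixed anchor-drug dose with five library-drug doses (not always all listed) in √10 steps. Relative viability is the nuclei count of treated wells divided by that of vehicle wells, and values are medians of duplicate plates.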

[2] = compound: COC1=CC=C(C=C1)CN2C=CC3=C2C=C(C=C3)C(=O)NO + CS(=O)(=O)N1CCN(Cc2cc3nc(-c4cccc5[nH]ncc45)nc(N4CCOCC4)c3s2)CC1 [Pictilisib] (partner 1 µM)
Outline: as §1

Veliparib + Lapatinib = compound: C[C@]1(c2nc3c(C(N)=O)cccc3[nH]2)CCCN1 [Veliparib] + CS(=O)(=O)CCNCc1ccc(-c2ccc3ncnc(Nc4ccc(OCc5cccc(F)c5)c(Cl)c4)c3c2)o1 [Lapatinib] (partner 2 µM)
Outline: as §1

Veliparib + Alpelisib = compound: C[C@]1(c2nc3c(C(N)=O)cccc3[nH]2)CCCN1 [Veliparib] + Cc1nc(NC(=O)N2CCC[C@H]2C(N)=O)sc1-c1ccnc(C(C)(C)C(F)(F)F)c1 [Alpelisib] (partner 2 µM)
Outline: as §1

| Cell Line | relative viability ([1]; first compound 0.08 µM) | relative viability ([1]; first compound 0.253 µM) | relative viability ([1]; first compound 0.8 µM) | relative viability ([1]; first compound 2.53 µM) | relative viability ([1]; first compound 8 µM) | relative viability ([2]; first compound 0.08 µM) | relative viability ([2]; first compound 0.253 µM) | relative viability ([2]; first compound 0.8 µM) | relative viability ([2]; first compound 2.53 µM) | relative viability ([2]; first compound 8 µM) | relative viability (Veliparib + Lapatinib; first compound 0.02 µM) | relative viability (Veliparib + Lapatinib; first compound 0.06325 µM) | relative viability (Veliparib + Lapatinib; first compound 0.2 µM) | relative viability (Veliparib + Lapatinib; first compound 0.6325 µM) | relative viability (Veliparib + Lapatinib; first compound 2 µM) | relative viability (Veliparib + Alpelisib; first compound 0.02 µM) | relative viability (Veliparib + Alpelisib; first compound 0.06325 µM) | relative viability (Veliparib + Alpelisib; first compound 0.2 µM) | relative viability (Veliparib + Alpelisib; first compound 0.6325 µM) | relative viability (Veliparib + Alpelisib; first compound 2 µM) |
| --- | --- | --- | --- | --- | --- | --- | --- | --- | --- | --- | --- | --- | --- | --- | --- | --- | --- | --- | --- | --- |
| EKVX | 0.166 | 0.18 | 0.185 | 0.203 | 0.225 | 0.327 | 0.443 | 0.424 | 0.522 | 0.439 | 0.19 | 0.203 | 0.217 | 0.201 | 0.231 | 0.784 | 0.867 | 0.85 | 0.837 | 0.902 |
| CAL-12T | 0.215 | – | 0.715 | 0.755 | 0.605 | 0.244 | – | 0.527 | 0.377 | 0.283 | 0.649 | 0.706 | 0.647 | 0.593 | 0.781 | 1.23 | 1.05 | 1.4 | 1.12 | 1.24 |
| NCI-H1734 | – | 1.14 | 1.07 | 1.04 | 0.916 | – | 0.487 | 0.437 | 0.384 | 0.416 | 1.16 | 0.982 | 0.933 | 0.981 | 1.12 | 0.734 | 0.569 | 0.705 | 0.667 | 0.744 |
| A549 | – | 0.931 | 1.09 | 0.953 | 0.915 | 0.446 | 0.585 | 0.504 | 0.502 | 0.472 | 1.12 | 0.93 | 0.978 | 0.869 | 0.957 | 0.697 | 0.686 | 0.75 | 0.688 | 0.796 |
| BEN | 0.552 | 0.552 | 0.637 | 0.78 | 0.621 | 0.504 | 0.589 | 0.582 | 0.544 | 0.499 | 0.445 | 0.72 | 0.777 | 0.824 | 0.81 | 0.925 | 0.982 | 1.2 | 0.992 | 1.05 |
| NCI-H2126 | 0.459 | 0.746 | 0.747 | 0.79 | 0.71 | 0.479 | 0.496 | 0.53 | 0.558 | 0.443 | 0.797 | 0.687 | 0.726 | 0.775 | 0.729 | 0.76 | 0.745 | 0.725 | 0.655 | 0.739 |
| NCI-H1563 | 0.769 | 0.939 | 0.953 | 0.862 | 0.748 | 0.547 | 0.656 | 0.645 | 0.706 | 0.618 | 0.695 | 1.02 | 0.976 | 0.978 | 0.987 | 0.981 | 0.965 | 1 | 0.826 | 1.04 |
| NCI-H2023 | 0.155 | 0.792 | 0.784 | 0.864 | 0.601 | 0.105 | 0.239 | 0.227 | 0.236 | 0.202 | 0.428 | 0.759 | 0.743 | 0.745 | 0.862 | 0.629 | 0.621 | 0.569 | 0.502 | 0.669 |
| NCI-H1437 | 0.23 | 0.84 | 0.877 | 0.886 | 0.8 | 0.47 | 0.449 | 0.473 | 0.481 | 0.412 | 0.519 | 0.794 | 0.72 | 0.78 | 0.759 | 0.898 | 0.977 | 0.98 | 0.921 | 0.889 |
| NCI-H322M | – | 0.628 | 0.644 | 0.293 | 0.499 | – | 0.542 | 0.544 | 0.501 | 0.45 | 0.722 | 0.602 | 0.629 | 0.61 | 0.471 | 0.763 | 0.719 | 0.78 | 0.7 | 0.772 |
| COR-L23 | 0.736 | 1.07 | 0.937 | 1.02 | 0.84 | 0.496 | 0.788 | 0.714 | 0.727 | 0.711 | 0.795 | 0.81 | 0.802 | 0.982 | 0.978 | 0.784 | 0.733 | 0.874 | 0.597 | 0.786 |
| NCI-H2009 | 0.432 | 0.886 | 1.25 | 0.954 | 0.767 | 0.601 | 0.836 | 0.91 | 0.788 | 0.604 | 0.748 | 0.903 | 0.909 | 0.815 | 1.03 | 1.19 | 0.994 | 1.17 | 1.15 | 1.23 |
| NCI-H1355 | 0.247 | 1.1 | 0.959 | 0.978 | 0.934 | 0.156 | 0.501 | 0.489 | 0.498 | 0.372 | – | 0.882 | 0.999 | 0.939 | 0.968 | – | 0.739 | 0.846 | 0.692 | 0.816 |
| NCI-H838 | – | 1.01 | 0.98 | 1.03 | 0.873 | – | 0.464 | 0.512 | 0.413 | 0.399 | 1.12 | 0.842 | 0.902 | 0.847 | 0.979 | 0.971 | 0.843 | 1.08 | 0.935 | 1 |
| EPLC-272H | 0.199 | 0.974 | 1.04 | 0.974 | 0.728 | 0.233 | 0.333 | 0.341 | 0.287 | 0.218 | – | 0.71 | 0.988 | 1.1 | 0.877 | – | 0.951 | 1.1 | 0.901 | 0.924 |
| ChaGo-K-1 | – | – | – | – | – | – | 0.655 | 0.801 | 0.706 | 0.462 | – | – | – | – | – | – | – | – | – | – |
| NCI-H1650 | 0.254 | 0.76 | 0.847 | 0.86 | 0.451 | 0.173 | 0.595 | 0.567 | 0.541 | 0.32 | – | 0.702 | 0.855 | 0.739 | 0.718 | – | – | – | – | – |
| NCI-H441 | – | – | – | – | – | 0.344 | 0.613 | 0.548 | 0.572 | 0.438 | – | – | – | – | – | 0.735 | 0.886 | 0.716 | 0.737 | 0.671 |
